One assay addresses T1, CDK6-CYCLIND3 (Homo sapiens, UniProt Q00534).
T1 construct: purchased Carna
The assay is described as follows: CDK inhibition assay (microfluidic LabChip, IC50 format). Type of assay: biochemical.

The next assay addresses CDK4-CYCLIND1 (Homo sapiens, UniProt P11802). Described as above.
The mark [1] stands for this setting: Table 4b, upper part, read-out: CDK6 IC50.
[2] abbreviates: CDK4 IC50, Table 4b, upper part.
[3] abbreviates: Table 3, second value of the cell CDK4/CDK6, value of the racemate, read-out: Racemate Activity CDK6.
The mark [4] stands for this setting: Racemate Activity CDK4, Table 3, first value of the cell CDK4/CDK6, value of the racemate.
Where [5] appears, read: Table 4b, lower part, read-out: CDK6 CyclinD3 IC50.
Where [6] appears, read: CDK4 CyclinD1 IC50, Table 4b, lower part, a second value in parentheses for some compounds.

Where two headings read alike, the source gives them in different places.

Chain of CDK4-CYCLIND1 (P11802 whole entry): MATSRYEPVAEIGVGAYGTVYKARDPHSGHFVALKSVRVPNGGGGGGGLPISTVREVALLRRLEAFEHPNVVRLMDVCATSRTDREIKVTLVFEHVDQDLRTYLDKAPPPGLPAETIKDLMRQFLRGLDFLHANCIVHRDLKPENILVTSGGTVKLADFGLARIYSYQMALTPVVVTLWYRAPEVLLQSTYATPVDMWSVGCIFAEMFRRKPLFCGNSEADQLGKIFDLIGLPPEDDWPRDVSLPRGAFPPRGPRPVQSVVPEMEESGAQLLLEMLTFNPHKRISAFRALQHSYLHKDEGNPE
Chain of CDK4-CYCLIND1 (P24385 whole entry partner): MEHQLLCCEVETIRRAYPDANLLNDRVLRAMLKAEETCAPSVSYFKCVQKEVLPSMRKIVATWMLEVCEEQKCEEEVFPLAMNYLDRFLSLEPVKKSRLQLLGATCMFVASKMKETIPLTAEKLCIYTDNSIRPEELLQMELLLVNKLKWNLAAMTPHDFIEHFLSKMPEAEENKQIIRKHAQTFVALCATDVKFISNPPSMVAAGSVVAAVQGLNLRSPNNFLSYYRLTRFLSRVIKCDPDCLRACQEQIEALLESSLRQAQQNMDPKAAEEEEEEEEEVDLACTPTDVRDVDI
T1 sequence (Q00534 whole entry): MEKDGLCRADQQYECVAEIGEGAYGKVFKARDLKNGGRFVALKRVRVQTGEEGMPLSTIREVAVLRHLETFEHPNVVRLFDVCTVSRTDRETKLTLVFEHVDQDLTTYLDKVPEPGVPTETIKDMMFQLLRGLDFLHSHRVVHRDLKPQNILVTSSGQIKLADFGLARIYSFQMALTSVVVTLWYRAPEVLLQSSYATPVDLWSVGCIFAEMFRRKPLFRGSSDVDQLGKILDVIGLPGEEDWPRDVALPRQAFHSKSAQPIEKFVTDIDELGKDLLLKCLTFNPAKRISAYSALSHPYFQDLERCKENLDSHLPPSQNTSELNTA
T1 sequence (P30281 whole entry partner): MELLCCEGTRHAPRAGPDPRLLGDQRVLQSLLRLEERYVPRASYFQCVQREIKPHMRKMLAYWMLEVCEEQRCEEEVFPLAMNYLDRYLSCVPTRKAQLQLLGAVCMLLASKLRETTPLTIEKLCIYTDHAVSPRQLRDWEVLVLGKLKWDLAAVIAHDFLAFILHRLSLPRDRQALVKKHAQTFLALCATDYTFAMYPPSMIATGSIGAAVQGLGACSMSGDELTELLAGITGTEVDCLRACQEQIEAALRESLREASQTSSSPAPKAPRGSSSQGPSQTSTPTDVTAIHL
Protocol for CDK4-CYCLIND1: Inhibition assays were performed using microfluidic LabChip 300 Drug Discovery System from Caliper Life Sciences. […] The assay has a total volume of 10 μL consisting of 5 μL of enzyme and buffer and 5 μL of substrate and buffer. The test compounds were diluted in 100% dimethylsulfoxide (DMSO) using 3-fold dilution steps. […] Compounds were tested in a single well for each dilution and the final concentration of DMSO was maintained at 1%.
The assay buffer contained 100 mM HEPES, pH 7.5, 0.01% Triton X-100, 0.1% bovine serum albumin (BSA), 5 mM MgCl2; 1 mM dithiothreitol (DTT), 10 μM sodium orthovanadate, and 10 μM β-glycerophosphate.
The assay was conducted by adding 5 μL of enzyme, adenosine triphosphate (ATP) and buffer to an assay plate. A 100 nL aliquot of the diluted compounds were added to the plate. The assay was initiated by the addition of 5 μL of phosphoenolpyruvate substrate (PEP) in buffer. […] The reaction was terminated by the addition of EDTA. The plates were analyzed using a Caliper LabChip 3000.
Additional inhibition assays were performed as described above.
The assays were conducted as described above for the racemates.

Regarding `CN1CCN(c2ccc(Nc3ncc4c(n3)N(C3CCCC3)C(=O)C3(CCNC3=O)C4)nc2)CC1` (centres unmarked) [Example D8, 8-cyclopentyl-2-((5-(4-methylpiperazin-1-yl)pyridin-2-yl)amino)-5,8-dihydro-7H-spiro[pyrido[2,3-d]pyrimidine-6,3′-pyrrolidine]-2′,7-dione], the IC50 on CDK6-CYCLIND3 (setting [1]) was determined as 3.92 nM; against CDK4-CYCLIND1 (setting [2]), 2.06 nM.
As to `CN1CCN(c2ccc(Nc3ncc4c(n3)N(C3CCCC3)C(=O)C3(CCNC3=O)C4)cc2F)CC1` (centres unmarked) [Example D12, 8-cyclopentyl-2-((3-fluoro-4-(4-methylpiperazin-1-yl)phenyl)amino)-5,8-dihydro-7H-spiro[pyrido[2,3-d]pyrimidine-6,3′-pyrrolidine]-2′,7-dione], the IC50 is 2.9 nM on CDK6-CYCLIND3 (setting [3]), 2.86 nM on CDK6-CYCLIND3 (setting [1]), 1.83 nM against CDK4-CYCLIND1 (setting [2]) and 1.8 nM on CDK4-CYCLIND1 (setting [4]).
Turning to `O=C1NCC[C@@]12Cc1cnc(N3CC4(CNC4)C3)nc1N(C1CCCC1)C2=O` [Example D198, (S)-8-cyclopentyl-2-(2,6-diazaspiro[3.3]heptan-2-yl)-5,8-dihydro-7H-spiro[pyrido[2,3-d]pyrimidine-6,3′-pyrrolidine]-2′,7-dione], the IC50 at CDK6-CYCLIND3 (setting [5]) is 16200 nM.
Turning to `CC(C)N1CCN(c2ccc(Nc3ncc4c(n3)N(C3CCCC3)C(=O)C3(CCN(C)C3=O)C4)cc2)CC1` (centres unmarked) [Example D2, 8-cyclopentyl-2-((4-(4-isopropylpiperazin-1-yl)phenyl)amino)-1′-methyl-5,8-dihydro-7H-spiro[pyrido[2,3-d]pyrimidine-6,3′-pyrrolidine]-2′,7-dione], the IC50 on CDK6-CYCLIND3 (setting [1]) came out at 360 nM; at CDK4-CYCLIND1 (setting [2]), 83.6 nM.
For the compound `CC(C)n1cc(-c2ccc(Nc3ncc4c(n3)N(C3CCCC3)C(=O)[C@]3(CCNC3=O)C4)cc2)cn1` [Example D195, (S)-8-cyclopentyl-2-((4-(1-isopropyl-1H-pyrazol-4-yl)phenyl)amino)-5,8-dihydro-7H-spiro[pyrido[2,3-d]pyrimidine-6,3′-pyrrolidine]-2′,7-dione], the IC50 is 33.7 nM on CDK6-CYCLIND3 (setting [5]) and 23 nM on CDK4-CYCLIND1 (setting [6]).
For `O=C1NCCC12Cc1cnc(Nc3ccc(N4CCNCC4)cc3)nc1N(C1CCCC1)C2=O` (centres unmarked) [Example D3, 8-cyclopentyl-2-((4-(piperazin-1-yl)phenyl)amino)-5,8-dihydro-7H-spiro[pyrido[2,3-d]pyrimidine-6,3′-pyrrolidine]-2′,7-dione], the IC50 on CDK6-CYCLIND3 (setting [3]) was 6.03 nM; at CDK6-CYCLIND3 (setting [1]), 6.03 nM; against CDK4-CYCLIND1 (setting [2]), 2.81 nM; at CDK4-CYCLIND1 (setting [4]) it was 2.81 nM.
Turning to `CC(C)N1CCN(c2ccc(Nc3ncc4c(n3)N(C35CC(C3)C5)C(=O)[C@]3(CCNC3=O)C4)cc2F)CC1` [Example D194, (S)-8-(bicyclo[1.1.1]pentan-1-yl)-2-((3-fluoro-4-(4-isopropylpiperazin-1-yl)phenyl)amino)-5,8-dihydro-7H-spiro[pyrido[2,3-d]pyrimidine-6,3′-pyrrolidine]-2′,7-dione], the IC50 turned out to be 31.2 nM on CDK6-CYCLIND3 (setting [5]) and 17.4 nM on CDK4-CYCLIND1 (setting [6]).
For `O=C1NCC[C@@]12Cc1cnc(Nc3ccc(N4CCC(N5CCOCC5)CC4)nc3)nc1N(C1CCCC1)C2=O` [Example D193, (S)-8-cyclopentyl-2-((6-(4-morpholinopiperidin-1-yl)pyridin-3-yl)amino)-5,8-dihydro-7H-spiro[pyrido[2,3-d]pyrimidine-6,3′-pyrrolidine]-2′,7-dione], the figures for the IC50 on CDK6-CYCLIND3 (setting [5]) and at CDK4-CYCLIND1 (setting [6]) were 2.32 nM and 1.54 nM, respectively.
On the same counts, the results for `O=C1NCC[C@@]12Cc1cnc(Nc3ccc(OCCN4CCCC4)nc3)nc1N(C1CCCC1)C2=O` [Example D191, (S)-8-cyclopentyl-2-((6-(2-(pyrrolidin-1-yl)ethoxy)pyridin-3-yl)amino)-5,8-dihydro-7H-spiro[pyrido[2,3-d]pyrimidine-6,3′-pyrrolidine]-2′,7-dione] are 11.2 nM and 6.27 nM.
As for `CN1CCN(c2ccc(Nc3ncc4c(n3)N(C3CCCC3)C(=O)C3(CC(=O)N(C)C3=O)C4)cc2)CC1` (centres unmarked) [Example D21, 8-cyclopentyl-1′-methyl-2-((4-(4-methylpiperazin-1-yl)phenyl)amino)-5,8-dihydro-7H-spiro[pyrido[2,3-d]pyrimidine-6,3′-pyrrolidine]-2′,5′,7-trione], the IC50 on CDK6-CYCLIND3 (setting [1]) worked out at 166 nM; against CDK4-CYCLIND1 (setting [2]) it was 51.2 nM.
As for `CN1CCN(c2ccc(Nc3ncc4c(n3)N(C35CC(C3)C5)C(=O)[C@@]3(CCNC3=O)C4)cc2F)CC1` [Example D197, (R)-8-(bicyclo[1.1.1]pentan-1-yl)-2-((3-fluoro-4-(4-methylpiperazin-1-yl)phenyl)amino)-5,8-dihydro-7H-spiro[pyrido[2,3-d]pyrimidine-6,3′-pyrrolidine]-2′,7-dione], the values for the IC50 at CDK6-CYCLIND3 (setting [5]) and on CDK4-CYCLIND1 (setting [6]) were 5380 nM and 2220 nM, respectively.
On to `CC(C)N1CCN(c2ccc(Nc3ncc4c(n3)N(C3CCCC3)C(=O)C3(CC(=O)N(C)C3=O)C4)cn2)CC1` (centres unmarked) [Example D26, 8-cyclopentyl-2-((6-(4-isopropylpiperazin-1-yl)pyridin-3-yl)amino)-1′-methyl-5,8-dihydro-7H-spiro[pyrido[2,3-d]pyrimidine-6,3′-pyrrolidine]-2′,5′,7-trione], for which the IC50 at CDK6-CYCLIND3 (setting [1]) was determined as 311 nM; against CDK4-CYCLIND1 (setting [2]), 105 nM.
In the same order, the values of `CN1C(=O)CC2(Cc3cnc(Nc4ccc(OCCN5CCCC5)c(F)c4)nc3N(C3CCCC3)C2=O)C1=O` (centres unmarked) [Example D30, 8-cyclopentyl-2-((3-fluoro-4-(2-(pyrrolidin-1-yl)ethoxy)phenyl)amino)-1′-methyl-5,8-dihydro-7H-spiro[pyrido[2,3-d]pyrimidine-6,3′-pyrrolidine]-2′,5′,7-trione] are 1450 nM and 472 nM.
On to `CN(C)[C@H]1CCN(C(=O)c2ccc(Nc3ncc4c(n3)N(C3CCCC3)C(=O)C3(CCNC3=O)C4)cn2)C1` (stereo partly drawn) [Example D47, 8-cyclopentyl-2-((6-((S)-3-(dimethylamino)pyrrolidine-1-carbonyl)pyridin-3-yl)amino)-5,8-dihydro-7H-spiro[pyrido[2,3-d]pyrimidine-6,3′-pyrrolidine]-2′,7-dione], for which the IC50 on CDK6-CYCLIND3 (setting [1]) came out at 10.6 nM; against CDK4-CYCLIND1 (setting [2]) it was 3.37 nM.
On to `O=C1NCC[C@]12Cc1cnc(Nc3ccc(N4CCNCC4)c(F)c3)nc1N(C13CC(C1)C3)C2=O` [Example D196, (R)-8-(bicyclo[1.1.1]pentan-1-yl)-2-((3-fluoro-4-(piperazin-1-yl)phenyl)amino)-5,8-dihydro-7H-spiro[pyrido[2,3-d]pyrimidine-6,3′-pyrrolidine]-2′,7-dione], for which the IC50 at CDK6-CYCLIND3 (setting [5]) turned out to be 2400 nM; on CDK4-CYCLIND1 (setting [6]), 1250 nM.
On to `CC(C)N1CCN(c2ccc(Nc3ncc4c(n3)N(C3CCCC3)C(=O)C3(CCNC3=O)C4)cn2)CC1` (centres unmarked) [Example D6, 8-cyclopentyl-2-((6-(4-isopropylpiperazin-1-yl)pyridin-3-yl)amino)-5,8-dihydro-7H-spiro[pyrido[2,3-d]pyrimidine-6,3′-pyrrolidine]-2′,7-dione], for which the IC50 on CDK6-CYCLIND3 (setting [1]) was 3.94 nM; at CDK4-CYCLIND1 (setting [2]), 1.88 nM.
As to `CN(C)CCOc1ccc(Nc2ncc3c(n2)N(C2CCCC2)C(=O)C2(CCNC2=O)C3)cc1` (centres unmarked) [Example D13, 8-cyclopentyl-2-((4-(2-(dimethylamino)ethoxy)phenyl)amino)-5,8-dihydro-7H-spiro[pyrido[2,3-d]pyrimidine-6,3′-pyrrolidine]-2′,7-dione], the IC50 turned out to be 6.38 nM at CDK6-CYCLIND3 (setting [1]) and 3.35 nM at CDK4-CYCLIND1 (setting [2]).
On the same counts, the results for `O=C1NCCC12Cc1cnc(Nc3ccc(N4CC5(CNC5)C4)cn3)nc1N(C1CCCC1)C2=O` (centres unmarked) [Example D41, 2-((5-(2,6-diazaspiro[3.3]heptan-2-yl)pyridin-2-yl)amino)-8-cyclopentyl-5,8-dihydro-7H-spiro[pyrido[2,3-d]pyrimidine-6,3′-pyrrolidine]-2′,7-dione] are 8.79 nM and 4.61 nM.
On the same counts, the results for `O=C1NCCC12Cc1cnc(Nc3ccc(OCCN4CCCCC4)nc3)nc1N(C1CCCC1)C2=O` (centres unmarked) [Example D35] are 14.4 nM and 7.01 nM.
As for `O=C1NCCC12Cc1cnc(Nc3ccc(N4CC5(CNC5)C4)cc3)nc1N(C1CCCC1)C2=O` (centres unmarked) [Example D40, 2-((4-(2,6-diazaspiro[3.3]heptan-2-yl)phenyl)amino)-8-cyclopentyl-5,8-dihydro-7H-spiro[pyrido[2,3-d]pyrimidine-6,3′-pyrrolidine]-2′,7-dione], the values for the IC50 at CDK6-CYCLIND3 (setting [1]) and on CDK4-CYCLIND1 (setting [2]) were 4.93 nM and 2.12 nM, respectively.
`Cc1cc(Nc2ncc3c(n2)N(C2CCCC2)C(=O)C2(CCNC2=O)C3)ccc1N1CCN(C(C)C)CC1` (centres unmarked) [Example D36, 8-cyclopentyl-2-((4-(4-isopropylpiperazin-1-yl)-3-methylphenyl)amino)-5,8-dihydro-7H-spiro[pyrido[2,3-d]pyrimidine-6,3′-pyrrolidine]-2′,7-dione]: the figures for the IC50 on CDK6-CYCLIND3 (setting [1]) and against CDK4-CYCLIND1 (setting [2]) were 4.53 nM and 1.96 nM, respectively.
As for `O=C1NCCC12Cc1cnc(Nc3ccc(N4CC5(CNC5)C4)c(F)c3)nc1N(C1CCCC1)C2=O` (centres unmarked) [Example D43], the values for the IC50 on CDK6-CYCLIND3 (setting [1]) and at CDK4-CYCLIND1 (setting [2]) were 4.95 nM and 2.42 nM, respectively.
For the compound `O=C1NCCC12Cc1cnc(Nc3ccc(OCCN4CCCCC4)cn3)nc1N(C1CCCC1)C2=O` (centres unmarked) [Example D34, 8-cyclopentyl-2-((5-(2-(piperidin-1-yl)ethoxy)pyridin-2-yl)amino)-5,8-dihydro-7H-spiro[pyrido[2,3-d]pyrimidine-6,3′-pyrrolidine]-2′,7-dione], the IC50 came out at 56.5 nM at CDK6-CYCLIND3 (setting [1]) and 44.6 nM against CDK4-CYCLIND1 (setting [2]).
`CN1CCN(c2ccc(Nc3ncc4c(n3)N(C3CCCC3)C(=O)C3(CCNC3=O)C4)cc2)CC1` (centres unmarked) [Example D4, 8-cyclopentyl-2-((4-(4-methylpiperazin-1-yl)phenyl)amino)-5,8-dihydro-7H-spiro[pyrido[2,3-d]pyrimidine-6,3′-pyrrolidine]-2′,7-dione]: the IC50 at CDK6-CYCLIND3 (setting [1]) amounted to 4.9 nM.
